Where a name gives a salt, the structure may show the parent alone.
Tests used:
Type in all cases: biochemical
Human plasma kallikrein = molecular target: T1, Human plasma kallikrein (Homo sapiens, UniProt P03952); test: Determination of the inhibition constant Ki for plasma kallikrein (chromogenic substrate S-2302, Dixon plot); details: substrate S-2302, 37° C.
T1 construct: purchased Callbiochem (Calbiochem)
Procedure: Determination of the Inhibition Constant Ki for Plasma Kallikrein
(§1) Inhibition of plasma kallikrein activity in vitro was determined using standard published methods (see e.g. Johansen et al., Int. J. Tiss. Reac. 1986, 8, 185; Shori et al., Biochem. Pharmacol., 1992, 43, 1209; Stüjrzebecher et al., Biol. Chem. Hoppe-Seyler, 1992, 373, 1025). Human plasma kallikrein (Callbiochem) was incubated at 37° C. with three different concentrations of the chromogenic substrate S-2302 (Chromogenix AB) and various concentrations of the test compound. Residual enzyme activity (initial rate of reaction) was determined by measuring the change in optical absorbance at 405 nm and the inhibitory constant Ki for the test compound as determined from a Dixon plot (Dixon, Biochem. J., 1953, 55, 170).

Human Tissue Kallikrein = Human Tissue Kallikrein (Homo sapiens, UniProt P06870); test: Enzyme selectivity: inhibition of human tissue kallikrein (substrate S-2266); details: for Selectivity: (Ki for Human Tissue Kallikrein)/(Ki for plasma kallikrein); for Ki: Human Tissue Kallikrein, substrate S-2266
Procedure: as §1, with “Reac. 1986, 8, 185;” left out, “Pharmacol., 1992, 43, 1209;” left out, “[…] Determination of Enzyme Selectivity Selected compounds were further screened for inhibitory activity against other trypsin-like proteases following the method of Example 59 and using the appropriate enzyme and chromogenic substrate (Chromogenix AB). The selectivity is given by: Selectivity=(Ki for test enzyme)/(Ki for plasma kallikrein)” for “J., 1953, 55, 170).”

Thrombin = Thrombin (Homo sapiens, UniProt P00734); test: Enzyme selectivity: inhibition of thrombin (substrate S-2238)
Procedure: as §1
Determination of Enzyme Selectivity
Selected compounds were further screened for inhibitory activity against other trypsin-like proteases following the method of Example 59 and using the appropriate enzyme and chromogenic substrate (Chromogenix AB). The selectivity is given by: Selectivity=(Ki for test enzyme)/(Ki for plasma kallikrein)

Plasmin = Plasmin (Homo sapiens, UniProt P00747); test: Enzyme selectivity: inhibition of plasmin (substrate S-2390)
Procedure: as §1, with “Reac. 1986, 8, 185;” left out, “Pharmacol., 1992, 43, 1209;” left out, “[…] Determination of Enzyme Selectivity Selected compounds were further screened for inhibitory activity against other trypsin-like proteases following the method of Example 59 and using the appropriate enzyme and chromogenic substrate (Chromogenix AB). The selectivity is given by: Selectivity=(Ki for test enzyme)/(Ki for plasma kallikrein)” for “J., 1953, 55, 170).”

Trypsin = molecular target: T2, Trypsin (Bos taurus, UniProt P00760); test: Enzyme selectivity: inhibition of trypsin (substrate S-2222)
T2 sequence (P00760 24-246): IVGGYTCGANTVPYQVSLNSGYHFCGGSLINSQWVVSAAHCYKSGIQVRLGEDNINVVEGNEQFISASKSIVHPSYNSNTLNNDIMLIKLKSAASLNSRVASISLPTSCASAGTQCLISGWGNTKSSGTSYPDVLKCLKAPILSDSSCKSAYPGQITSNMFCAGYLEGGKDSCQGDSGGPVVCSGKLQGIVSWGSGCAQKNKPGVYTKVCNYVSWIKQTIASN
Procedure: as §1, with “Reac. 1986, 8, 185;” left out, “Pharmacol., 1992, 43, 1209;” left out, “[…] Determination of Enzyme Selectivity Selected compounds were further screened for inhibitory activity against other trypsin-like proteases following the method of Example 59 and using the appropriate enzyme and chromogenic substrate (Chromogenix AB). The selectivity is given by: Selectivity=(Ki for test enzyme)/(Ki for plasma kallikrein)” for “J., 1953, 55, 170).”

T1 sequence (P03952 391-638 limits assumed): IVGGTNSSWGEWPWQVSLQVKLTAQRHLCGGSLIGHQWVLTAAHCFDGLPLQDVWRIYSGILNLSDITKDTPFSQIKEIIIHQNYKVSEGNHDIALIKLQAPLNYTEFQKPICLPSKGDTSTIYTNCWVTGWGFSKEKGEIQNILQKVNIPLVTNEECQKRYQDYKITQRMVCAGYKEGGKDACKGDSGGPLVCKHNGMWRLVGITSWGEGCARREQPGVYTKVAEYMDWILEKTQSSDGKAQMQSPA
T1 sequence (P03952 20-390 partner limits assumed): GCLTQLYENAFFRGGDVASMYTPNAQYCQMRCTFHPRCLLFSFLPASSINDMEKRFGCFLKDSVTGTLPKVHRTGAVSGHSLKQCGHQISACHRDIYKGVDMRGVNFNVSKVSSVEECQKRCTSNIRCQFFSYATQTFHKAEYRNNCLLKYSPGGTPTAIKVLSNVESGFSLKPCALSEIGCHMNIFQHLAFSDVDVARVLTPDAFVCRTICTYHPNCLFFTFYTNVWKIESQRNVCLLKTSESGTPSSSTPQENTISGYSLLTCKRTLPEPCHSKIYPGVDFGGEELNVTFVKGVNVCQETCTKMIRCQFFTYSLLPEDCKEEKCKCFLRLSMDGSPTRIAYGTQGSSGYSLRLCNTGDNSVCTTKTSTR
Chain of Human Tissue Kallikrein (P06870 25-262): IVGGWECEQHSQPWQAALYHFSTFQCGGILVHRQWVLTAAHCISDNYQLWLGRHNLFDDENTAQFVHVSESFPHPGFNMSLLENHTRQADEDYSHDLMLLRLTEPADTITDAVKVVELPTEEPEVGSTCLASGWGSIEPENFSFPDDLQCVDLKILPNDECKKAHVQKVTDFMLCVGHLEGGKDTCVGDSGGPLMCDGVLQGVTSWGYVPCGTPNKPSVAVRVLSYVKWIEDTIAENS
Chain of Plasmin (P00747 97-810): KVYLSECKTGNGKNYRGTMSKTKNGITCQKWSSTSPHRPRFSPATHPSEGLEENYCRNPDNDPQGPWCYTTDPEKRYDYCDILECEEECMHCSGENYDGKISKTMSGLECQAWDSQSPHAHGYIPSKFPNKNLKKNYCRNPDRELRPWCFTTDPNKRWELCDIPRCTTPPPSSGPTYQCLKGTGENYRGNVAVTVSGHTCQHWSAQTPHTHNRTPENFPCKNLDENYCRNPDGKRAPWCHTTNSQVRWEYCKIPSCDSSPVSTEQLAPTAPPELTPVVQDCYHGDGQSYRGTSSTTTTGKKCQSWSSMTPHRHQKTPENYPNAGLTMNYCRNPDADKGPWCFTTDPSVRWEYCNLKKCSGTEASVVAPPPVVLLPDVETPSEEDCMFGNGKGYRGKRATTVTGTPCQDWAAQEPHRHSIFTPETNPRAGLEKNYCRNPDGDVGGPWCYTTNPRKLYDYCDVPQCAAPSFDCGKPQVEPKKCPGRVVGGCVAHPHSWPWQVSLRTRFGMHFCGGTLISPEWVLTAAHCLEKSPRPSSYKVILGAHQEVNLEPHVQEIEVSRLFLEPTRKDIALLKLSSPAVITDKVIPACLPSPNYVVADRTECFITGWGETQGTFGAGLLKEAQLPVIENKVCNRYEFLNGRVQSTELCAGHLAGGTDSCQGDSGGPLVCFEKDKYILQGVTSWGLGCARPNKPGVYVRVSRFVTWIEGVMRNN

`CCOc1ccc(C[C@@H](N)C(=O)N[C@@H](Cc2ccccc2)C(=O)NC2CCN(C(=N)N)CC2)cc1.O=C(O)C(F)(F)F` [Example 1, (2′S,2″R)-4-(2′-(2″-Amino-3″-(4′″-ethoxyphenyl)propanoylamino)-3′-phenylpropanoyl-amino)piperidine-1-carboxamidine trifluoroacetate] was tested, and the Ki (Human plasma kallikrein) was 4.5 nM, the Selectivity (Human Tissue Kallikrein) was 10,000 and the Ki (Human Tissue Kallikrein) was 45000 nM.

`COC(=O)CN[C@H](CC1CCCCC1)C(=O)N[C@@H](Cc1ccccc1)C(=O)NC1CCN(C(=N)N)CC1` [Example 2, (2′S,2″R)-4-(2′-(3″-Cyclohexyl-2″-(methyloxycarbonylmethylamino)propanoylamino)-3′-phenylpropanoylamino)piperidine-1-carboxamidine trifluoroacetate] showed a Ki (Human plasma kallikrein) of 66 nM.

For `N=C(N)N1CCC(NC(=O)[C@H](Cc2ccccc2)NC(=O)[C@@H](CC2CCCCC2)NCC(=O)O)CC1.O=C(O)C(F)(F)F` [Example 3, (2′S,2″R)-4-(2′-(2″-(Carboxymethylamino)-3″-cyclohexylpropanoylamino)-3′-phenyl-propanoylamino)piperidine-1-carboxamidine trifluoroacetate], the Ki (Human plasma kallikrein) was 3 nM, the Selectivity (Human Tissue Kallikrein) was 2,000 and the Ki (Human Tissue Kallikrein) was 6000 nM. The Selectivity (Thrombin; (Ki for Thrombin)/(Ki for plasma kallikrein)) was 100, the Ki (Thrombin; Thrombin, substrate S-2238) was 310 nM and the Selectivity (Plasmin; (Ki for Plasmin)/(Ki for plasma kallikrein)) was 1,000. The Ki (Plasmin; Plasmin, substrate S-2390) was 3200 nM, the Selectivity (Trypsin; (Ki for Trypsin)/(Ki for plasma kallikrein)) was 270 and the Ki (Trypsin; Trypsin, substrate S-2222) was 825 nM.

`CCOc1ccc(C[C@@H](NC(=O)c2ccccc2)C(=O)N[C@@H](Cc2ccccc2)C(=O)NC2CCN(C(=N)N)CC2)cc1.O=C(O)C(F)(F)F` [Example 4, (2′S,2″R)-4-(2′-(2″-Benzoylamino-3″-(4′″-ethoxyphenyl)propanoylamino)-3′-phenyl-propanoylamino)piperidine-1-carboxamidine trifluoroacetate] was tested, and the Ki (Human plasma kallikrein) was 1.4 nM, the Selectivity (Human Tissue Kallikrein) was 13,000 and the Ki (Human Tissue Kallikrein) was 18500 nM.

In the case of `CCOc1ccc(C[C@@H](N)C(=O)N[C@H](C(=O)NC2CCN(C(=N)N)CC2)[C@H](O)c2ccccc2)cc1.O=C(O)C(F)(F)F` [Example 5, (2′S,2″R, 3′R)-4-(2′-(2″-Amino-3″-(4′″-ethoxyphenyl)propanoylamino)-3′-hydroxy-3′-phenyl-propanoylamino)piperidine-1-carboxamidine trifluoroacetate], the Ki (Human plasma kallikrein) is reported as 6.6 nM, the Selectivity (Human Tissue Kallikrein) is reported as >10,000 and the Ki (Human Tissue Kallikrein) is reported as over 70000 nM.

Molecule `CCOc1ccc(C[C@@H](N)C(=O)N[C@H](C(=O)NC2CCN(C(=N)N)CC2)[C@H](OC)c2ccccc2)cc1` [Example 6, (2′S,2″R,3′R)-4-(2′-(2″-Amino-3″-(4′″-ethoxyphenyl)propanoylamino)-3′-methoxy-3′-phenyl-propanoylamino)piperidine-1-carboxamidine trifluoroacetate] has a Ki (Human plasma kallikrein) of 25 nM.

For `N=C(N)N1CCC(NC(=O)[C@H](Cc2ccccc2)NC(=O)[C@@H](CC2CCC3CCCCC3C2)NCC(=O)O)CC1` (some centres unmarked) [Example 14], the Ki (Human plasma kallikrein) was 2.6 nM.

`COC(=O)CN[C@H](CC1CCC2CCCCC2C1)C(=O)N[C@@H](Cc1ccccc1)C(=O)NC1CCN(C(=N)N)CC1` (some centres unmarked) [Example 15] showed a Ki (Human plasma kallikrein) of 19 nM.

`N=C(N)N1CCC(NC(=O)[C@H](Cc2ccccc2)NC(=O)[C@H](N)Cc2ccc(OCc3ccccc3)cc2)CC1` [Example 32] gave a Ki (Human plasma kallikrein) of 5.5 nM.

`CCCOc1ccc(C[C@@H](N)C(=O)N[C@@H](Cc2ccccc2)C(=O)NC2CCN(C(=N)N)CC2)cc1` [Example 34] gave a Ki (Human plasma kallikrein) of 7 nM.

Work on `CCOc1ccc(C[C@@H](NC)C(=O)N[C@@H](Cc2ccccc2)C(=O)NC2CCN(C(=N)N)CC2)cc1` [Example 39] yielded a Ki (Human plasma kallikrein) of 15 nM, a Selectivity (Human Tissue Kallikrein) of 930 and a Ki (Human Tissue Kallikrein) of 14000 nM.

`CCOc1ccc(C[C@@H](NS(C)(=O)=O)C(=O)N[C@@H](Cc2ccccc2)C(=O)NC2CCN(C(=N)N)CC2)cc1` [Example 40] gave a Ki (Human plasma kallikrein) of 9 nM, a Selectivity (Human Tissue Kallikrein) of 210 and a Ki (Human Tissue Kallikrein) of 1950 nM.

`CCOc1ccc(C[C@@H](NS(=O)(=O)c2ccccc2)C(=O)N[C@@H](Cc2ccccc2)C(=O)NC2CCN(C(=N)N)CC2)cc1` [Example 42] was tested, and the Ki (Human plasma kallikrein) was 4.5 nM, the Selectivity (Human Tissue Kallikrein) was 1,500 and the Ki (Human Tissue Kallikrein) was 6800 nM.

In the case of `CCOc1ccc(C[C@@H](NC(C)=O)C(=O)N[C@@H](Cc2ccccc2)C(=O)NC2CCN(C(=N)N)CC2)cc1` [Example 43], the Ki (Human plasma kallikrein) is reported as 7.3 nM, the Selectivity (Human Tissue Kallikrein) is reported as 9,400 and the Ki (Human Tissue Kallikrein) is reported as 69000 nM.

`CCCC(=O)N[C@H](Cc1ccc(OCC)cc1)C(=O)N[C@@H](Cc1ccccc1)C(=O)NC1CCN(C(=N)N)CC1` [Example 44] was tested, and the Ki (Human plasma kallikrein) was 4.1 nM.

`CCOc1ccc(C[C@@H](NC(=O)CC)C(=O)N[C@@H](Cc2ccccc2)C(=O)NC2CCN(C(=N)N)CC2)cc1` [Example 45] was tested, and the Ki (Human plasma kallikrein) was 3 nM, the Selectivity (Human Tissue Kallikrein) was 16,000 and the Ki (Human Tissue Kallikrein) was 49000 nM.

`CCOc1ccc2c(c1)CN[C@@H](C(=O)N[C@@H](Cc1ccccc1)C(=O)NC1CCN(C(=N)N)CC1)C2` [Example 52] gave a Ki (Human plasma kallikrein) of 18 nM.

From patent publication US7649000B2, “Selective dipeptide inhibitors of kallikrein” (Vantia Limited, priority 2002, dated 2010)
